We go through 10 molecules from ChEMBL document CHEMBL3431459, “Roche carnitine palmitoyltransferase modulator screening data (supplementary data associated with the publication CHEMBL2216752)”.

Series [1] concerns the target T1, Carnitine O-palmitoyltransferase 1, muscle isoform (Homo sapiens, UniProt Q92523).
T1 sequence (Q92523 whole entry): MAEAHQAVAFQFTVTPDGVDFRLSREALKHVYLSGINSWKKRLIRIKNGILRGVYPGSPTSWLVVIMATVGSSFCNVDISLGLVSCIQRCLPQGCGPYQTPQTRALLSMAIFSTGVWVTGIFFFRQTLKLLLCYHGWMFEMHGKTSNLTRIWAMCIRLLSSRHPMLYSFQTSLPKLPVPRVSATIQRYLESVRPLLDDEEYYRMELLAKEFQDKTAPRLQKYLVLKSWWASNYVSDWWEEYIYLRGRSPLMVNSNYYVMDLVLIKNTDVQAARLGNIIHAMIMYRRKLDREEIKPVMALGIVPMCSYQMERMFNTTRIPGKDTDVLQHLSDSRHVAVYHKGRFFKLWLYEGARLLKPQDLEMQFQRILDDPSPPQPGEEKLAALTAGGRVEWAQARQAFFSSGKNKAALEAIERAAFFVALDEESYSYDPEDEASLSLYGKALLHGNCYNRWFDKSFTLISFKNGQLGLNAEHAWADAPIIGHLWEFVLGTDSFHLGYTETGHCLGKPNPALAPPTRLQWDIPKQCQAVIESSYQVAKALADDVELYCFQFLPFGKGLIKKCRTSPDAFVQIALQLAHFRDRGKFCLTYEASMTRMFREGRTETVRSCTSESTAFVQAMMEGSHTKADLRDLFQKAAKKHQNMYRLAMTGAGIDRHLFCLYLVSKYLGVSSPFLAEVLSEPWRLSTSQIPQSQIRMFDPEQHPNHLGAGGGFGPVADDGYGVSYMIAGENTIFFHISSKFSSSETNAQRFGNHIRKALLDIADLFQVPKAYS
Put plainly: SUPPLEMENTARY: Inhibition of Carnitine palmitoyltransferase 1, muscle isoform. More on the design: species or system Muscle tissue.

Series [2] deals with T2, Carnitine O-palmitoyltransferase 2, mitochondrial (Homo sapiens, UniProt P23786).
T2 sequence (P23786 whole entry): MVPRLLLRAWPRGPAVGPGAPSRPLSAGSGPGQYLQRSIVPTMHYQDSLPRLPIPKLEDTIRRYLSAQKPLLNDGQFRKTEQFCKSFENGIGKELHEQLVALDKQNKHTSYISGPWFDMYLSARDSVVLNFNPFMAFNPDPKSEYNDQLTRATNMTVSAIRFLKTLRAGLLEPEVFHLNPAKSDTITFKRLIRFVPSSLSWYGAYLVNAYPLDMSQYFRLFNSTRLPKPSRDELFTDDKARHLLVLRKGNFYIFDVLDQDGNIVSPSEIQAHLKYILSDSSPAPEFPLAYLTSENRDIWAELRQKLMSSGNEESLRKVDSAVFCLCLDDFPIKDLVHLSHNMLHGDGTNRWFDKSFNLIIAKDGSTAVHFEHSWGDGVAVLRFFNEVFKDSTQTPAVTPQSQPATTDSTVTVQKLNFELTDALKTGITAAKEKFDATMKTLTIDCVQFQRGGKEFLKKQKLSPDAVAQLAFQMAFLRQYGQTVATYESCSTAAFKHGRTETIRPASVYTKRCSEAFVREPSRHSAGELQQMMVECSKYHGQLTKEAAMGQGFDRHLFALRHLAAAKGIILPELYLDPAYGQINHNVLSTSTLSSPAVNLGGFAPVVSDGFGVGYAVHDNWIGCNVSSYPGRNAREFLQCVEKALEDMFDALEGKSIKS
Put plainly: (§1) SUPPLEMENTARY: Inhibition of Carnitine palmitoyltransferase 2.

The target of series [3] is T3, Carnitine O-palmitoyltransferase 2, mitochondrial (Rattus norvegicus, UniProt P18886).
T3 sequence (P18886 whole entry): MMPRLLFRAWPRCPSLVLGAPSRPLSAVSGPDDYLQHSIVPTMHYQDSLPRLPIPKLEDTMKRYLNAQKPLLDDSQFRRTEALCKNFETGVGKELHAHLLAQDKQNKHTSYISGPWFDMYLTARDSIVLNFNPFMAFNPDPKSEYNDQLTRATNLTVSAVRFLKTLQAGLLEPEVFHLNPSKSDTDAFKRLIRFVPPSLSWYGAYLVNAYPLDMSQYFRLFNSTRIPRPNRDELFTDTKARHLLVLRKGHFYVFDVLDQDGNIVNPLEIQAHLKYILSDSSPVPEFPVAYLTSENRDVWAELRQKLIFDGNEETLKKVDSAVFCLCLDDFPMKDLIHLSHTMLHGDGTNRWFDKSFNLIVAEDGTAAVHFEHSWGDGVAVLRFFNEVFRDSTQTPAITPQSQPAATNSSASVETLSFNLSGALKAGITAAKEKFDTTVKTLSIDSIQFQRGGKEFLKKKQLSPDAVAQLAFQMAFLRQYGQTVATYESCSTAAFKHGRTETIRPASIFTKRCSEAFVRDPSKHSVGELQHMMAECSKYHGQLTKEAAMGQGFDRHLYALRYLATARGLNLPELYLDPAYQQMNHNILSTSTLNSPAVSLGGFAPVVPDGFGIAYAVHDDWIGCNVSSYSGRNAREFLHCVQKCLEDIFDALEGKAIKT
Described as §1.

Series [4] concerns the target T4, Carnitine O-palmitoyltransferase 1, liver isoform (Homo sapiens, UniProt P50416).
T4 sequence (P50416 whole entry): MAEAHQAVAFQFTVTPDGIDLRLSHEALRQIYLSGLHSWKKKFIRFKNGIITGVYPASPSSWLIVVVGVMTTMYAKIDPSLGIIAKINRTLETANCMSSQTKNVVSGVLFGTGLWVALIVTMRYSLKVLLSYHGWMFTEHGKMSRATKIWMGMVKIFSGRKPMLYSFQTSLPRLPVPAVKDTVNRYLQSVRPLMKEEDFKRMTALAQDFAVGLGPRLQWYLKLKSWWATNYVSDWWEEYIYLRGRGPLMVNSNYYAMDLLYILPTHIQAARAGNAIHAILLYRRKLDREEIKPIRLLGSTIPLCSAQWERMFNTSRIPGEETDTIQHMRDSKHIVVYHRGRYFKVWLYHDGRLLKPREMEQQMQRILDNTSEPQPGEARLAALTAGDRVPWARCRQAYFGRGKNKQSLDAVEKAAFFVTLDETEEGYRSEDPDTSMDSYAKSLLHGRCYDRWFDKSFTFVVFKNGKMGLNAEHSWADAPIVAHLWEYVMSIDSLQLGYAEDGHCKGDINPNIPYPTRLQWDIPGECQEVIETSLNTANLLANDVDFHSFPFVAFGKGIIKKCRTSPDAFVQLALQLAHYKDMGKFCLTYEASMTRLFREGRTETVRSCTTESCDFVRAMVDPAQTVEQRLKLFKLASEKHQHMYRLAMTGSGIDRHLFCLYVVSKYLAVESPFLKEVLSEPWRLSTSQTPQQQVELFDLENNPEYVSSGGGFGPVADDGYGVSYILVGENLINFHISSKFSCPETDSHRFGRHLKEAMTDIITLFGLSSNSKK
Put plainly: (§2) SUPPLEMENTARY: Inhibition of Carnitine palmitoyltransferase 1, liver isoform.

For series [5], the target named is T5, Carnitine O-palmitoyltransferase 1, liver isoform (Rattus norvegicus, UniProt P32198).
T5 sequence (P32198 whole entry): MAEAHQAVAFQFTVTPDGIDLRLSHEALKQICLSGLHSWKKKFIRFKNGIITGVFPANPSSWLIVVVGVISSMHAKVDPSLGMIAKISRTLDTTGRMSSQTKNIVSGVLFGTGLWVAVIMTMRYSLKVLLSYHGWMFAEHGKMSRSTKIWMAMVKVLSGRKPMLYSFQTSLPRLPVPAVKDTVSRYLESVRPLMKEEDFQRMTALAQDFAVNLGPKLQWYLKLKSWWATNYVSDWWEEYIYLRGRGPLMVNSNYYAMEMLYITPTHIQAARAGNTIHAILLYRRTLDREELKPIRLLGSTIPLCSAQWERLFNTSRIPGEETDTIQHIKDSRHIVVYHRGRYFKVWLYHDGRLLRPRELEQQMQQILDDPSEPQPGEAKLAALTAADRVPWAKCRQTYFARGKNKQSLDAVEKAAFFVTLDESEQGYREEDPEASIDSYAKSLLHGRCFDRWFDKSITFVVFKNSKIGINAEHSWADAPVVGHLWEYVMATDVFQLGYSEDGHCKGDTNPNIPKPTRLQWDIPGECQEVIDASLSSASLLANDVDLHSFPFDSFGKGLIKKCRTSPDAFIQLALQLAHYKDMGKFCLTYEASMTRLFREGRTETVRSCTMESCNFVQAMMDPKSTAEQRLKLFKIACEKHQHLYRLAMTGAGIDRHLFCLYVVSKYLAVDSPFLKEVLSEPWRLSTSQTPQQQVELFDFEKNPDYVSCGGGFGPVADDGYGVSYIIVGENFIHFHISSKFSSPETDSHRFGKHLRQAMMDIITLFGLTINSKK
The description is as §2.

Series [6] can be described thus: SUPPLEMENTARY: Lyophilisation Solubility Assay (LYSA). The following applies: read-out: Kinetic_solubility. The format is physicochemical.
The nature of series [7]: SUPPLEMENTARY: Lipophilicity (log D) Determination by high-throughput shake-flask. Conditions: octanol/water. The format is physicochemical.
Series [8] in a line: SUPPLEMENTARY: PAMPA permeability assay. The following applies: read-out: Permeability. The class given is physicochemical.

pIC50: −log10 of the molar value. ≈ marks a conversion by molar mass, not a printed value.

In the case of `O=C([C@H]1CCCCN1C(=O)COc1ccccc1)N1Cc2ccc(Cl)cc2C1`, the pIC50 is < 4.00 in series [1]; 6.21 in series [2]; 6.09 in series [3]; 6.47 in series [4]; 6.25 in series [5]. In addition, the solubility kinetic in series [6] was determined as 0.015 mg/mL (≈ 37.6 µM). This molecule registered a log distribution coefficient (logD) in series [7] of 3.26. In addition, the Papp in series [8] was 50.3 nm/s.

For `COc1ccc(Cl)cc1S(=O)(=O)N1CCOc2c(C)cc(C(=O)Nc3nc(CC(=O)O)cs3)cc21`, the negative logarithm of the IC50 (pIC50) is 5.50 in series [1]; < 4.00 in series [2]; < 4.00 in series [3]; 7.27 in series [4]; 7.42 in series [5]. For the same molecule, in series [6], the solubility kinetic was 0.003 mg/mL (≈ 5.58 µM). This molecule also showed a logD in series [7] of 2.55. Moreover, the Papp in series [8] is 18.8 nm/s.

With `COc1ccc(Cl)cc1S(=O)(=O)N1COc2c(C)cc(C(=O)Nc3nc(CC(=O)O)cs3)cc21`, the negative logarithm of the IC50 (pIC50) in series [1] is 6.07; in series [2] it was 4.39; in series [3], < 4.00; in series [4], 7.10; in series [5] it was 7.18. Further, the solubility kinetic in series [6] turned out to be 0.195 mg/mL (≈ 372 µM). In series [7], the logD is 0.58. The Papp in series [8] worked out at 27.7 nm/s.

As for `CCOc1ccc(C(=O)Nc2ccc(CC(=O)O)cc2)cc1N(CCS(=O)O)S(=O)(=O)c1cc(Cl)ccc1OC`, the pIC50 was 6.20 in series [1]; < 4.00 in series [2]; < 4.00 in series [3]; 6.98 in series [4]; 6.39 in series [5]. In addition, the solubility kinetic in series [6] stood at 0.577 mg/mL (≈ 944 µM). For the same molecule, the logD in series [7] is < -1. The Papp in series [8] is 0.4 nm/s.

In the case of `CCOc1ccc(C(=O)Nc2ccc(C(=O)O)c(F)c2)cc1N(CCS(=O)O)S(=O)(=O)c1cc(Cl)ccc1OC`, the negative-log IC50 (pIC50) is 4.56 in series [1]; < 4.00 in series [2]; < 4.00 in series [3]; 6.84 in series [4]; 6.86 in series [5]. The solubility kinetic in series [6] was > 0.685 mg/mL. The pH-dependent lipophilicity (logD) in series [7] was -1.31. Further, the Papp in series [8] is 0.7 nm/s.

`COc1ccc(Cl)cc1Cc1c[nH]c2ccc(C(=O)Nc3nc(CC(=O)O)cs3)cc12`: the pIC50 is 5.92 in series [1]; < 4.00 in series [2]; < 4.00 in series [3]; 7.41 in series [4]; 7.23 in series [5]. The solubility kinetic in series [6] was determined as 0.055 mg/mL (≈ 121 µM). The molecule further displayed a pH-dependent lipophilicity (logD) in series [7] of 1.48. Further, the Papp in series [8] came out at 4.9 nm/s.

For the molecule `COc1ccc(Cl)cc1Cc1c[nH]c2ccc(C(=O)Nc3ccc(CC(=O)O)cc3)cc12`, the pIC50 in series [1] is 6.31; in series [2], < 4.00; in series [3], < 4.00; in series [4], 6.74; in series [5], 6.83. Moreover, the solubility kinetic in series [6] is 0.319 mg/mL (≈ 711 µM). In series [7], this molecule showed a pH-dependent lipophilicity (logD) of 0.72. The Papp in series [8] worked out at 4.3 nm/s.

For `O=C([C@H]1CCCCN1C(=O)COc1ccccc1)N1CCc2cccc(Cl)c2C1`, the pIC50 in series [1] is 4.10; in series [2], 5.55; in series [3], 5.45; in series [4], 6.74; in series [5] it was 6.96. The solubility kinetic in series [6] was < 0.001 mg/mL. Besides, in series [7], the log distribution coefficient (logD) came to 3.2. Further, the Papp in series [8] came to 19.1 nm/s.

On to `COc1cccc2c1CCN(C(=O)[C@H]1CCCCN1C(=O)COc1ccccc1)C2`, for which the pIC50 in series [1] was < 4.00; in series [2] it was 6.01; in series [3], 5.66; in series [4] it was 6.66; in series [5], 6.33. Also, the solubility kinetic in series [6] amounted to 0.023 mg/mL (≈ 56.3 µM). This molecule returned a log distribution coefficient (logD) in series [7] of 3.13. Moreover, the Papp in series [8] was 54.6 nm/s.

Regarding `CN1CCN(c2cc3c(cc2Cl)CN(C(=O)[C@H]2CCCCN2C(=O)COc2ccccc2)C3)CC1`, the negative logarithm of the IC50 (pIC50) was < 4.00 in series [1]; 5.70 in series [2]; 5.57 in series [3]; 7.06 in series [4]; 7.18 in series [5]. The solubility kinetic in series [6] came to 0.242 mg/mL (≈ 487 µM). For the same molecule, the pH-dependent lipophilicity (logD) in series [7] came out at 2.38. Besides, the Papp in series [8] worked out at 31.6 nm/s.
